Assay results: ChEMBL document CHEMBL3045988, “Computational and thermodynamic analyses of the phospholipase A2 inhibition by erucic acid and linoleic acid” (Med Chem Res, 2013)

Molecular target: Phospholipase A2 (Sus scrofa) (UniProt P00592+P04416)
Experiment: Binding affinity to Sus scrofa (pig) PLA2 isolated from pancreas by isothermal titration calorimetric analysis
Type: protein assay

Sequence of Phospholipase A2 (Sus scrofa) (P00592 whole entry, looked up): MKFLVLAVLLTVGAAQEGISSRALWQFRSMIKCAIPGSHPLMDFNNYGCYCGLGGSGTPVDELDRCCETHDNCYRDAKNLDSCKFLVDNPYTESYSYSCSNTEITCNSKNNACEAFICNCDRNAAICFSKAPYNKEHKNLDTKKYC
Sequence of Phospholipase A2 (Sus scrofa) (P04416 whole entry, looked up): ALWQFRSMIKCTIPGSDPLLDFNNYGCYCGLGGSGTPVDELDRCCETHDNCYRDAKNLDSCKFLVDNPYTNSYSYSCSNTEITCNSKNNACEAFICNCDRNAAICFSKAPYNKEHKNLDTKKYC

CCCCCCCC/C=C\CCCCCCCCCCCC(=O)O gave a K of 23.3 ×10⁴ /M.

For CCCCC/C=C\C/C=C\CCCCCCCC(=O)O, the K was 1.15 ×10⁴ /M.
